Literature values, collected in patent US20020020828A1, “Non-toxic ethylene glycol-based antifreeze/heat transfer fluid concentrate and antifreeze/heat transfer fluid” (priority 2000, published 2002).

Tested on: humans
Details: ingestion

In the case of `OCCO` [EG, 1,2-ethandiol], the “toxic level in humans (reported as low as)” value is given as 1,570 mg/kg.
